This passage reports Drug metabolism, Activity and half-life results from ChEMBL document CHEMBL4190181 (Medchemcomm, 2016).

The nature of series [1]: Drug level in rat liver microsomes treated with (+/-)-7-Chloro-5-(3-furanyl)-3-methyl-3,4-dihydro-2H-1,2,4-benzothiadiazine 1,1-dioxide assessed as CYP450-mediated metabolite formation at 10 uM after 60 mins by LC-MS/MS analysis. It counts as ADME. Particulars: 1 h.
A further series is filed under the species Rattus norvegicus. As to the kind of experiment: Positive allosteric modulation of AMPAR in Sprague-Dawley rat primary culture of cerebellar neurons assessed as potentiation of kainate-induced current at 10 uM by whole-cell patch clamp electrophysiological method relative to control.
The nature of series [2]: Half life of the compound in pH 7.4 buffer assessed as compound racemization. It counts as physicochemical.

Turning to `C[C@H]1Nc2c(-c3ccoc3)cc(Cl)cc2S(=O)(=O)N1`, the Drug metabolism result in series [1] is given as “Metabolite_Detected”. In addition, the Activity in the series listed under Rattus norvegicus turned out to be 488%. For the compound `CC1Nc2ccc(Cl)cc2S(=O)(=O)N1` (configuration not stated), the Activity in the series listed under Rattus norvegicus is 8%.

On to `CC1Nc2c(-c3ccoc3)cc(Cl)cc2S(=O)(=O)N1` (racemic), for which the half-life in series [2] came out at 60 min. Moreover, in the series listed under Rattus norvegicus, the Activity turned out to be 1600%. Consider `C[C@@H]1Nc2c(-c3ccoc3)cc(Cl)cc2S(=O)(=O)N1`, for which the Drug metabolism result in series [1] is reported as “Metabolite_Detected”. Further, the Activity in the series listed under Rattus norvegicus came out at 2590%.
